Reference: US8568745B2, “Water-soluble drug carrier and process for producing the same” (Kyushu University, National University Corporation, priority 2009, dated 2013)

Test: Dispersibility of FITC-DEX-encapsulated S/W with additives
Type: physicochemical
Conditions: additive 125 mg/mL in aqueous phase of S/O/W emulsion
Method: In order to reduce the particle size in S/W, the additives presented in Table 1 were added to the aqueous phase of the S/O/W emulsion during the preparation of S/W, and the dispersibility of each sample was observed.
(2) Cyclohexane (3.0 mL) was added to (1) to obtain an FITC-DEX-encapsulated S/O.
(3) A PC-ER-290-FITC-DEX complex solid was obtained by freeze drying the S/O/W emulsion prepared by agitating the solution of (2) (0.50 mL), and 5.0 mL of an aqueous solution (containing 2.5 mg/mL PC, and each additive at a concentration of 125 mg/mL) in a 12-mL vial container using a homogenizer.
(4) A 0.1 TE buffer (5.0 mL) was added to (3) to obtain an FITC-DEX-encapsulated S/W.

OCC(O)CO [Glycerine]
dispersibility / particle size of FITC-DEX-encapsulated S/W with additive: relatively small particle sizes

OC[C@@H](O)[C@@H](O)[C@H](O)[C@@H](O)CO [sorbitol]
dispersibility / particle size of FITC-DEX-encapsulated S/W with additive: relatively small particle sizes

OC[C@H]1O[C@H](O[C@H]2O[C@H](CO)[C@@H](O)[C@H](O)[C@H]2O)[C@H](O)[C@@H](O)[C@@H]1O [trehalose]
dispersibility / particle size of FITC-DEX-encapsulated S/W with additive: relatively small particle sizes
